Experimental data: PubChem BioAssay (NCI)
Where “and” joins values, the source holds several entries; their conditions need not be identical. Identical values can stand only once.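 Test compounds were applied to cells in 96-well plates for 48 hours at 5 doses. Abbreviation: GI50, concentration required for 50% inhibition of growth. TGI: total growth inhibition.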

What was measured:
Assay in all cases: NCI anticancer screen, dose series, 48 h
786-0 renal = tested on: 786-0 renal
A498 renal = tested on: A498 renal
A549 NSCLC = tested on: A549 NSCLC
ACHN renal = tested on: ACHN renal
BT-549 breast = tested on: BT-549 breast
CAKI-1 renal = tested on: CAKI-1 renal
CCRF-CEM leukemia = tested on: CCRF-CEM leukemia
COLO 205 colon = tested on: COLO 205 colon
DU-145 prostate = tested on: DU-145 prostate
EKVX NSCLC = tested on: EKVX NSCLC
HCC-2998 colon = tested on: HCC-2998 colon
HCT-116 colon = tested on: HCT-116 colon
HCT-15 colon = tested on: HCT-15 colon
HL-60(TB) leukemia = tested on: HL-60(TB) leukemia
HOP-62 NSCLC = tested on: HOP-62 NSCLC
HOP-92 NSCLC = tested on: HOP-92 NSCLC
HS 578T breast = tested on: HS 578T breast
HT29 colon = tested on: HT29 colon
IGROV1 ovarian = tested on: IGROV1 ovarian
K-562 leukemia = tested on: K-562 leukemia
KM12 colon = tested on: KM12 colon
LOX IMVI melanoma = tested on: LOX IMVI melanoma
M14 melanoma = tested on: M14 melanoma
MALME-3M melanoma = tested on: MALME-3M melanoma
MCF7 breast = tested on: MCF7 breast
MDA-MB-231 breast = tested on: MDA-MB-231 breast
MDA-MB-435 = tested on: MDA-MB-435
MOLT-4 leukemia = tested on: MOLT-4 leukemia
NCI-H226 lung = tested on: NCI-H226 lung
NCI-H23 lung = tested on: NCI-H23 lung
NCI-H460 lung = tested on: NCI-H460 lung
NCI-H522 lung = tested on: NCI-H522 lung
NCI/ADR-RES ovarian = tested on: NCI/ADR-RES ovarian
OVCAR-3 ovarian = tested on: OVCAR-3 ovarian
OVCAR-4 ovarian = tested on: OVCAR-4 ovarian
OVCAR-5 ovarian = tested on: OVCAR-5 ovarian
OVCAR-8 ovarian = tested on: OVCAR-8 ovarian
PC-3 prostate = tested on: PC-3 prostate
RPMI-8226 leukemia = tested on: RPMI-8226 leukemia
RXF 393 renal = tested on: RXF 393 renal
SF-268 CNS = tested on: SF-268 CNS
SF-295 CNS = tested on: SF-295 CNS
SF-539 CNS = tested on: SF-539 CNS
SK-MEL-2 melanoma = tested on: SK-MEL-2 melanoma
SK-MEL-28 melanoma = tested on: SK-MEL-28 melanoma
SK-MEL-5 melanoma = tested on: SK-MEL-5 melanoma
SK-OV-3 ovarian = tested on: SK-OV-3 ovarian
SN12C renal = tested on: SN12C renal
SNB-19 CNS = tested on: SNB-19 CNS
SNB-75 CNS = tested on: SNB-75 CNS
SR leukemia = tested on: SR leukemia
SW-620 colon = tested on: SW-620 colon
T-47D breast = tested on: T-47D breast
TK-10 renal = tested on: TK-10 renal
UACC-257 melanoma = tested on: UACC-257 melanoma
UACC-62 melanoma = tested on: UACC-62 melanoma
UO-31 renal = tested on: UO-31 renal

## CN1C(=O)[C@]23SSC1(C)C(=O)N2[C@H]1Nc2ccccc2C1([C@@]12c4ccccc4N[C@@H]1N1C(=O)C4(C)SS[C@]1(C(=O)N4C)[C@H]2O)[C@@H]3O (stereo partly specified)
786-0 renal
  GI50: 44.8 nM and 185 nM
  TGI: 108 nM and 363 nM
A498 renal
  GI50: 384 nM and 2330 nM
  TGI: 678 nM and 3810 nM
A549 NSCLC
  TGI: 1100 nM and 6850 nM
ACHN renal
  GI50: 37.1 nM and 57.7 nM
  TGI: 100 nM and 508 nM
BT-549 breast
  GI50: 218 nM and 1490 nM
  TGI: 486 nM and 2970 nM
CAKI-1 renal
  GI50: 48.8 nM and 154 nM
  TGI: 170 nM and 396 nM
CCRF-CEM leukemia
  GI50: 73.9 nM and 203 nM
  TGI: 1560 nM and 2210 nM
COLO 205 colon
  GI50: 28.3 nM and 153 nM
  TGI: 61.3 nM and 395 nM
DU-145 prostate
  GI50: 46.1 nM and 299 nM
  TGI: 208 nM and 1440 nM
EKVX NSCLC
  GI50: 64.4 nM and 606 nM
  TGI: 504 nM and 3690 nM
HCC-2998 colon
  GI50: 79.1 nM and 567 nM
  TGI: 297 nM and 1940 nM
HCT-116 colon
  GI50: 55.8 nM and 97.4 nM
  TGI: 229 nM and 556 nM
HCT-15 colon
  GI50: 21.7 nM and 143 nM
HL-60(TB) leukemia
  GI50: 235 nM and 254 nM
  TGI: 782 nM and 1530 nM
HOP-62 NSCLC
  GI50: 219 nM and 1400 nM
  TGI: 576 nM and 3300 nM
HOP-92 NSCLC
  GI50: 307 nM and 302 nM
  TGI: 640 nM and 674 nM
HS 578T breast
  GI50: 465 nM and 1580 nM
  TGI: 1730 nM and 5400 nM
HT29 colon
  GI50: 27.6 nM and 187 nM
  TGI: 86.5 nM and 454 nM
IGROV1 ovarian
  GI50: 238 nM and 290 nM
  TGI: 570 nM and 864 nM
K-562 leukemia
  GI50: 39.7 nM and 84.7 nM
  TGI: 2880 nM and 10500 nM
KM12 colon
  GI50: 140 nM and 1210 nM
  TGI: 478 nM and 3410 nM
LOX IMVI melanoma
  GI50: 30.9 nM and 165 nM
  TGI: 70.8 nM and 394 nM
M14 melanoma
  GI50: 48.2 nM and 175 nM
  TGI: 163 nM and 451 nM
MALME-3M melanoma
  GI50: 22.7 nM and 50.5 nM
  TGI: 53.9 nM and 184 nM
MCF7 breast
  GI50: 10.7 nM and 45.7 nM
  TGI: 223 nM and 1220 nM
MDA-MB-231 breast
  GI50: 54.9 nM and 321 nM
  TGI: 184 nM and 827 nM
MDA-MB-435
  GI50: 96.7 nM and 265 nM
  TGI: 413 nM and 804 nM
MOLT-4 leukemia
  GI50: 65.3 nM and 214 nM
  TGI: 590 nM and 1370 nM
NCI-H226 lung
  GI50: 290 nM
  TGI: 807 nM
NCI-H23 lung
  GI50: 37.4 nM
  TGI: 101 nM
NCI-H460 lung
  GI50: 129 nM and 326 nM
  TGI: 1490 nM and 1140 nM
NCI-H522 lung
  GI50: 28.8 nM and 179 nM
  TGI: 61.9 nM and 395 nM
NCI/ADR-RES ovarian
  GI50: 121 nM and 549 nM
  TGI: 588 nM and 3740 nM
OVCAR-3 ovarian
  GI50: 20.2 nM and 183 nM
  TGI: 57.1 nM and 426 nM
OVCAR-4 ovarian
  GI50: 30.2 nM and 164 nM
  TGI: 73.1 nM and 322 nM
OVCAR-5 ovarian
  GI50: 360 nM and 1440 nM
  TGI: 756 nM and 4210 nM
OVCAR-8 ovarian
  GI50: 34.8 nM and 165 nM
  TGI: 75.1 nM and 359 nM
PC-3 prostate
  GI50: 185 nM and 662 nM
  TGI: 720 nM and 3010 nM
RPMI-8226 leukemia
  GI50: 53.6 nM and 257 nM
  TGI: 221 nM and 882 nM
RXF 393 renal
  GI50: 33 nM and 170 nM
  TGI: 65.7 nM and 318 nM
SF-268 CNS
  GI50: 309 nM and 1960 nM
  TGI: 1260 nM and 5580 nM
SF-295 CNS
  GI50: 275 nM and 2380 nM
  TGI: 555 nM and 4690 nM
SF-539 CNS
  GI50: 68.7 nM and 277 nM
  TGI: 264 nM and 762 nM
SK-MEL-2 melanoma
  GI50: 265 nM and 718 nM
  TGI: 540 nM and 2160 nM
SK-MEL-28 melanoma
  GI50: 33.9 nM and 187 nM
  TGI: 76.6 nM and 419 nM
SK-MEL-5 melanoma
  TGI: 242 nM and 2010 nM
SK-OV-3 ovarian
  GI50: 293 nM and 1670 nM
  TGI: 751 nM and 4050 nM
SN12C renal
  GI50: 107 nM and 407 nM
  TGI: 1170 nM and 1910 nM
SNB-19 CNS
  GI50: 455 nM and 1330 nM
  TGI: 1580 nM and 4340 nM
SNB-75 CNS
  GI50: 209 nM and 1960 nM
  TGI: 544 nM and 3500 nM
SR leukemia
  GI50: 46.5 nM and 210 nM
  TGI: 417 nM and 1070 nM
SW-620 colon
  GI50: 66.7 nM and 144 nM
  TGI: 434 nM and 660 nM
T-47D breast
  GI50: 22 nM and 184 nM
  TGI: 89.9 nM and 595 nM
TK-10 renal
  GI50: 54.5 nM and 503 nM
  TGI: 128 nM and 906 nM
UACC-257 melanoma
  GI50: 34.8 nM and 208 nM
  TGI: 94.3 nM and 488 nM
UACC-62 melanoma
  GI50: 137 nM and 420 nM
  TGI: 398 nM and 1820 nM
UO-31 renal
  GI50: 45.2 nM and 192 nM
  TGI: 122 nM and 367 nM
